Activity calls are given as the source filed them.
Experiments:
Vero [1] = experiment: cytotoxicity of synthesized analogs in Vero 76, SAR follow-up, cytotoxicity control for West Nile virus antiviral project, Vero 76 cells (AID 2414); assay type: functional; details: Chlorocebus sabaeus
Vero [2] = experiment: cytotoxicity of synthesized analogs in Vero cells, SAR follow-up, cytotoxicity control for West Nile virus antiviral project, cell-based, set II (AID 2402); assay type: functional; details: Chlorocebus sabaeus
[3] = tested on: Streptococcus sp. 'group A'; experiment: growth inhibition of control SK(-) GAS strain, dose response, counter-screen for streptokinase expression inhibitor project, luminescence, kanamycin, BacTiterGlo, confirmation (AID 1900); assay type: functional, organism-based
Galanin receptor type 2 = Galanin receptor type 2 (Homo sapiens, UniProt O43603); experiment: Dose Response cell-based high-throughput screening assay to identify agonists of galanin receptor 2 (GALR2). [Related pubchem assays: 864 ]; assay type: functional
Galanin receptor type 2, sequence (O43603 whole entry): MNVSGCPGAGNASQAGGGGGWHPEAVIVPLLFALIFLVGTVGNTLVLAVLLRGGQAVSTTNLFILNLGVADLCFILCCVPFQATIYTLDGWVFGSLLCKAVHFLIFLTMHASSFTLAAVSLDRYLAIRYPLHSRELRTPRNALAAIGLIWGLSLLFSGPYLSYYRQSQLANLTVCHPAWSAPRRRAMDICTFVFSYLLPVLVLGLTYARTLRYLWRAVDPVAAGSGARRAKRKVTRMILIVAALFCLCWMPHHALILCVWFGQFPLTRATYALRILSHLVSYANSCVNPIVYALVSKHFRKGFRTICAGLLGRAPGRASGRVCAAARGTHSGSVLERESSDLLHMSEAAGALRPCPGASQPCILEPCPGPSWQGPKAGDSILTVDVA

Streptococcus = experiment: Group A Streptococcus viability loss, dose response, counter-screen for streptokinase expression inhibitor project, luminescence, BacTiterGlo (AID 1915); assay type: functional, organism-based;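 note: potency for reduction of bacterial viability or growth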
Nonstructural protein 1 = Nonstructural protein 1 (Influenza A virus, UniProt Q194T2); assay type: functional, Influenza A virus (A/California/07/2009(H1N1))
Nonstructural protein 1, sequence (Q194T2 whole entry): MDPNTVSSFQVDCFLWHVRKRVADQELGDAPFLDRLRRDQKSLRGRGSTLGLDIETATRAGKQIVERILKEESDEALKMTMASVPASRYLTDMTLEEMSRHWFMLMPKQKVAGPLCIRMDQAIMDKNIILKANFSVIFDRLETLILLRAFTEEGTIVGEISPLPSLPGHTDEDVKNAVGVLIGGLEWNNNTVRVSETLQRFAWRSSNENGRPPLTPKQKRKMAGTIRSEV

INS1 = experiment: beta cell apoptosis inhibitors, cytokine rescue, dose response, luminescence, retest (AID 449756); assay type: functional, cell-based; details: Rattus norvegicus;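 note: cell death triggered by IL-1 beta plus TNF-alpha plus IFN-gamma mixture; protective hits raise ATP signal compared with cytokine alone wells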
[4] = HepG2 cell cytotoxicity, dose response, cytotoxicity control, ATP luminescence, cherry-pick, set 6 (AID 1053125); assay type: functional, cell-based
[5] = human group III sPLA2 inhibitors, dose response, biochemical, QFRET, IC50 (AID 743457);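 note: green fluorescence rise as the enzyme cleaves BODIPY PC-A2 in liposomes; potency for inhibition of the enzyme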
cells [6] = details: A549
cells [7] = details: HEK293
[8] = Luminescence Cell-Based Dose Confirmation HTS to Identify Activators of 5'UTR Stem-Loop Driven Alpha-Synuclein mRNA Translation in H4 Neuroglioblastoma Cells. [Related pubchem assays: 1829 (Project Summary), 1814 (Primary HTS)]; assay type: functional
[9] = Luminescence Cell-Based Dose Response HTS to Identify Activators of Luciferase Translation or Activity in H4 […] Cells. [Related pubchem assays: 1829 (Project Summary), 1814 (Primary HTS)]; assay type: functional
H4 = experiment: Luminescence Cell-Based Dose Response HTS to Identify Activators of 5'UTR Stem-Loop Driven Prion Protein mRNA Translation in H4 Neuroglioblastoma Cells. [Related pubchem assays: 1829 (Project Summary), 1814 (Primary HTS)]; assay type: functional; details: Homo sapiens
[10] = biological target: Voltage-gated inwardly rectifying potassium channel KCNH2 (Homo sapiens, UniProt Q12809); experiment: hERG protection from proarrhythmic block, potency, dose response, cell-based, thallium flux (AID 2121); assay type: ADME
[11] = biological target: Voltage-gated N-type calcium channel alpha-1B subunit/Amyloid beta A4 precursor protein-binding family A member 1 (Homo sapiens, UniProt Q00975+Q02410); assay type: protein assay
Voltage-gated N-type calcium channel alpha-1B subunit/Amyloid beta A4 precursor protein-binding family A member 1, sequence (Q00975 whole entry): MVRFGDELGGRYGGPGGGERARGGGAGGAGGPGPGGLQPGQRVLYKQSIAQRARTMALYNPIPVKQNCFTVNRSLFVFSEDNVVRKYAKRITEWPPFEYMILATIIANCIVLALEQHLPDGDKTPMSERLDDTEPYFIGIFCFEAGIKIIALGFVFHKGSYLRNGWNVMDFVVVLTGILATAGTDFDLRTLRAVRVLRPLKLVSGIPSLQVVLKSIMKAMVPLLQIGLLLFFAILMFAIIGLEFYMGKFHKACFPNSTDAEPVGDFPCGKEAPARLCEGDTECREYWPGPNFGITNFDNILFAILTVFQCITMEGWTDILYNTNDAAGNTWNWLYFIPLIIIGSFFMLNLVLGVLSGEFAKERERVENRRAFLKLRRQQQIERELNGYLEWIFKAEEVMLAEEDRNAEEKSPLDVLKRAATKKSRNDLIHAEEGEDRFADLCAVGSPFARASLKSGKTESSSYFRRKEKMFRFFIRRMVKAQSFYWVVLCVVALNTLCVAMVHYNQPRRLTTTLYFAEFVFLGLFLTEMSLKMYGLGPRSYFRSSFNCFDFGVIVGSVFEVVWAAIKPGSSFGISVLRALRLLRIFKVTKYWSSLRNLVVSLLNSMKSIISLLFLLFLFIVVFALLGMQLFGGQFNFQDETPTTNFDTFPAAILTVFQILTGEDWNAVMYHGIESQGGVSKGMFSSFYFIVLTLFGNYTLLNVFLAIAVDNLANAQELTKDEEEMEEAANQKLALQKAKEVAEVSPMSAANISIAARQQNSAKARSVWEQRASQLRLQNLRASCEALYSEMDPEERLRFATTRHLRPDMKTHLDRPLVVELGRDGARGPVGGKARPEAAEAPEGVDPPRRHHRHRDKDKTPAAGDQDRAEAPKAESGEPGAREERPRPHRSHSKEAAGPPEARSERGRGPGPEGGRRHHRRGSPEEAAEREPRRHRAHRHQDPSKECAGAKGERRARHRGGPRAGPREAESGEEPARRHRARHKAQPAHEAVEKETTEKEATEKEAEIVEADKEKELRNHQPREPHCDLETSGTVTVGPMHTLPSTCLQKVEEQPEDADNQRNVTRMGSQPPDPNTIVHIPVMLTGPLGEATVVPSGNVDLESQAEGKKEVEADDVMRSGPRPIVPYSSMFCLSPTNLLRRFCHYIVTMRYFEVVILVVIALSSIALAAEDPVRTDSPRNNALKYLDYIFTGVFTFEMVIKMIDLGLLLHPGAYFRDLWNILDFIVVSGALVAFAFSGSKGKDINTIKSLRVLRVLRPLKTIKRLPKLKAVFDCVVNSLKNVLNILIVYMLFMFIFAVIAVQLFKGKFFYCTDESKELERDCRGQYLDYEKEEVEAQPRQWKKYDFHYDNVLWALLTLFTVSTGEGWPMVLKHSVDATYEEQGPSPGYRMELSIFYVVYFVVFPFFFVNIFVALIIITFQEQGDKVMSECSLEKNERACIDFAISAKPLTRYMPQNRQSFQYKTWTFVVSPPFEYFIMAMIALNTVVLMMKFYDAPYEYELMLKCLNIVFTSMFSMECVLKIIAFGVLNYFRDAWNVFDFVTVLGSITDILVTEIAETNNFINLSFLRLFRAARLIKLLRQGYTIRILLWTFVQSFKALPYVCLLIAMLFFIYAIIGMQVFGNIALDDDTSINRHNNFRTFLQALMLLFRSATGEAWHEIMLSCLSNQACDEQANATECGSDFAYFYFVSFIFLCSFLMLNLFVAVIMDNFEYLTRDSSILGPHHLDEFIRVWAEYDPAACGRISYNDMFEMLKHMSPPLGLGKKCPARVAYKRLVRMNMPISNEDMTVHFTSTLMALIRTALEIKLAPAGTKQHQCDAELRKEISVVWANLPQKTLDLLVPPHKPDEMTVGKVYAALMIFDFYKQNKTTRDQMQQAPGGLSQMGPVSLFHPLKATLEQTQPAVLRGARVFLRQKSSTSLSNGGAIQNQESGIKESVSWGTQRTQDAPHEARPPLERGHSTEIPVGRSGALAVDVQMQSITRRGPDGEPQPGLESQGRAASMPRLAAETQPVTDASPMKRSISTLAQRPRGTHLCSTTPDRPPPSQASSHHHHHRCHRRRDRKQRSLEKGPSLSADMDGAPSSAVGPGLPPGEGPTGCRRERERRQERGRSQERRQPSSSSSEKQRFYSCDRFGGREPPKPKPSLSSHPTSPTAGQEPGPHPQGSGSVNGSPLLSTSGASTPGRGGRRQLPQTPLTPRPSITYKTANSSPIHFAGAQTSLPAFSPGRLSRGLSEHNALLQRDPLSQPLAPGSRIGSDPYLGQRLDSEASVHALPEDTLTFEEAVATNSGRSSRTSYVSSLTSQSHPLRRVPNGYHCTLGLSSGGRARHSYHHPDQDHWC
Voltage-gated N-type calcium channel alpha-1B subunit/Amyloid beta A4 precursor protein-binding family A member 1, sequence (Q02410 whole entry): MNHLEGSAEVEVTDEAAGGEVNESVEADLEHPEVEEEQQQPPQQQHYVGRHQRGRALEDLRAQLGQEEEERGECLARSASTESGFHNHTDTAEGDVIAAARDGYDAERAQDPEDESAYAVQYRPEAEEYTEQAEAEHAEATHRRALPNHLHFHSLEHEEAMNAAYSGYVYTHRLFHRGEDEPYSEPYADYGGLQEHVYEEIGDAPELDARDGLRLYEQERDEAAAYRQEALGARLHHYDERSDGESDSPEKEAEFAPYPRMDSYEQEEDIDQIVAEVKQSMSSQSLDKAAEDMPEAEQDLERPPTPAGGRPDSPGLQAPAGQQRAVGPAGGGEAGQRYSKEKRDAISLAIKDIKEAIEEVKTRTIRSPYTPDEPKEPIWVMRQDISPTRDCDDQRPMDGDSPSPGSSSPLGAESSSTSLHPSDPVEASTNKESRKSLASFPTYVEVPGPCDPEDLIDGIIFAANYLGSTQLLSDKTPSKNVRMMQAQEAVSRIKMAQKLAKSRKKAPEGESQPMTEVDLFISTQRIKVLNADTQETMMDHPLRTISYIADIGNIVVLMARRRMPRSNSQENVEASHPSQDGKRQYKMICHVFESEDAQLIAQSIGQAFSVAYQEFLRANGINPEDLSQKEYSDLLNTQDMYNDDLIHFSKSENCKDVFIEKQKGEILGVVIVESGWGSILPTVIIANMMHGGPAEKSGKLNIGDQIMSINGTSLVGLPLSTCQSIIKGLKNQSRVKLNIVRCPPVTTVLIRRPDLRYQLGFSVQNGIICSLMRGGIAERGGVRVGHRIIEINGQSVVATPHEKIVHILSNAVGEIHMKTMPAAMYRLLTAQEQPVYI

Genome polyprotein = Genome polyprotein (Hepatitis C virus, UniProt Q2Q167); experiment: HCV core protein dimerization inhibitors, dose response, biochemical, TR-FRET (AID 2159); parameters: species or system Hepacivirus hominis;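 note: blocks dimerization of HCV core protein measured by TR-FRET between tagged core106 pairs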
Genome polyprotein, sequence (Q2Q167 whole entry): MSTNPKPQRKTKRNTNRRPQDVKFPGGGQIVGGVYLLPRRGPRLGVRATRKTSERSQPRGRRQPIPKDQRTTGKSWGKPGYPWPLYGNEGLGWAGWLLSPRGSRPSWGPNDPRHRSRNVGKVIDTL

[12] = biological target: Sphingosine 1-phosphate receptor 2 (Homo sapiens, UniProt O95136); experiment: Dose Response Cell Based Assay for Agonists of the S1P2 Receptor of Purchased Analogues. [Related pubchem assays: 729, 843, 854, 736 ]; assay type: functional
Sphingosine 1-phosphate receptor 2, sequence (O95136 whole entry): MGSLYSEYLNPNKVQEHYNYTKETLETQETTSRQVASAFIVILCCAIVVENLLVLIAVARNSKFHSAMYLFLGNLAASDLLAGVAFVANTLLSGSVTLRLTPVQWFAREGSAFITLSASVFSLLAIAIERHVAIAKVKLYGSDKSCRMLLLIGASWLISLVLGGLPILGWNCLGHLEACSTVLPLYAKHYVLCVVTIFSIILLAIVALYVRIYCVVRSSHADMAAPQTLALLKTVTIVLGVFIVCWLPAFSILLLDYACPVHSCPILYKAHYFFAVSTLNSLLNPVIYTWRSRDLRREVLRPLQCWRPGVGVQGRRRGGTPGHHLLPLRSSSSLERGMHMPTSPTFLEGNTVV

[13] = biological target: Diphosphomevalonate decarboxylase (Streptococcus pneumoniae serotype 2 (strain D39 / NCTC 7466), UniProt Q9FD53); experiment: S. pneumoniae DPM-DC inhibition retest, confirmation, biochemical, cuvette format, coupled NADH fluorescence (AID 1028); assay type: functional
[14] = biological target: Ubiquitin carboxyl-terminal hydrolase BAP1 (Homo sapiens, UniProt Q92560); experiment: BAP1 deubiquitinase inhibitors, dose response, biochemical (AID 714); assay type: functional
Ubiquitin carboxyl-terminal hydrolase BAP1, sequence (Q92560 whole entry): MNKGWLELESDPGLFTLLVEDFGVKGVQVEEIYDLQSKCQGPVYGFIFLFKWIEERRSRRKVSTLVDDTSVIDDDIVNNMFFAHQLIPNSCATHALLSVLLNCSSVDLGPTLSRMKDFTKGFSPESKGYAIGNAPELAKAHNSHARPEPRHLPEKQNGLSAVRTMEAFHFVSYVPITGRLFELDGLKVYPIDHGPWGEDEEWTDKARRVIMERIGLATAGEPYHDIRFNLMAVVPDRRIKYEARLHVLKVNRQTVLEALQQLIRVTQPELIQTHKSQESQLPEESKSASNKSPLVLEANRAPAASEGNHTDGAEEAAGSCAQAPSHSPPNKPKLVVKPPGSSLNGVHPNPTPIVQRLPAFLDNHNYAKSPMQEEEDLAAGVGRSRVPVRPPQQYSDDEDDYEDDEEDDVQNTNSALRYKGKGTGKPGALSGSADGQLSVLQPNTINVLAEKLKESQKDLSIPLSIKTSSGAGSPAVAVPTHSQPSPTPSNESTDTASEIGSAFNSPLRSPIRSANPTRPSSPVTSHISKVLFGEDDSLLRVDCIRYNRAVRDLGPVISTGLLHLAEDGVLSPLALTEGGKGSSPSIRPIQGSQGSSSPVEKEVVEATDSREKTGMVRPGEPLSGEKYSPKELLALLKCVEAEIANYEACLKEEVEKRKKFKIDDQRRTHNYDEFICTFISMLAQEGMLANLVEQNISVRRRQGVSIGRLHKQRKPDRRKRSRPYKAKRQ

OC1c2cc(Br)ccc2N=C2CCCCCN21 (stereo not given)
CC50 (Vero [1]): 61 µM (active) | CC50 (Vero [2]): 37.6 µM (active)

Cc1cccc2sc(NNC(=O)c3ccc(S(=O)(=O)N4CCCC(C)C4)cc3)nc12 (stereo not given)
EC50 [3]: 0.493 µM (active) | EC50 (Galanin receptor type 2): > 55.7 µM (not active) | EC50 (Streptococcus): 8.56 µM (active) | IC50 (Nonstructural protein 1): > 100 µM (active) | AC50 (INS1): 1.12 µM (active) | AC50 [4]: 4.56 µM (active) | IC50 [5]: 21.3 µM (inactive) | AC50 (cells [6]): 8.96 µM (active) | AC50 (cells [7]): 4.7 µM (active)

CCOC(=O)c1sc(NC(=S)NC(=O)c2ccccc2)nc1C
EC50 [8]: 17.6 µM (active) | EC50 [9]: 7.98 µM (active) | EC50 (H4): 25 µM (active) | EC50 [10]: 3.68 µM (active)

Nc1cccc(-c2nc3cc(S(=O)(=O)c4ccc5oc(-c6cccc(N)c6)nc5c4)ccc3o2)c1
IC50 [11]: 13.2 µM (active)

Sc1nc(Cc2ccccc2)nc2ccccc12
IC50 (Genome polyprotein): > 49.8 µM (not active)

Cc1cc(C(=O)Cn2cc(C(F)(F)F)ccc2=O)c(C)n1Cc1ccccc1
EC50 [12]: 0.723 µM (active)

O=C(NCc1ccccc1)c1ccc(-n2sc3ccccc3c2=O)cc1
IC50 [13]: 9.98 µM (active)

COc1ccc2nc(NC(=O)CCc3nc(-c4ccccc4F)no3)sc2c1
IC50 [14]: 36.6 µM (not active)
